Converted amounts (≈) assume the structure as drawn. Where two headings read alike, the source gives them in different places.
Experiments:
E. coli CTX-M-15 = experiment: MIC, panel of quinolone-resistant strains (CLSI); format: cell-based; conditions: Escherichia coli, CTXM15; CIP R, ESBL
E. coli 2906 = experiment: MIC, panel of quinolone-resistant strains (CLSI); format: cell-based; conditions: Escherichia coli, CIP R
Klebsiella ssp KPC-3 = experiment: MIC, panel of quinolone-resistant strains (CLSI); format: cell-based, Klebsiella spp; conditions: KPC3, CIP R, ESBL
Pseudomonas ssp PER-1 = experiment: MIC, panel of quinolone-resistant strains (CLSI); format: cell-based, Pseudomonas spp; conditions: PER1, CIP R, ESBL
P. aeruginosa 1388-3-02 = experiment: MIC, panel of quinolone-resistant strains (CLSI); format: cell-based; conditions: Pseudomonas aeruginosa, 1388302; CIP R, POL R
P. aeruginosa 143-3-03 = experiment: MIC, panel of quinolone-resistant strains (CLSI); format: cell-based; conditions: Pseudomonas aeruginosa, 143303; CIP I, POL R
[1] = tested on: Acinetobacter spp. H064200250; experiment: MIC determination for Acinetobacter strains (Example 3); format: cell-based, Acinetobacter sp.; conditions: LEV R, CIP R, MRP R, IMP I
A. baumannii A 401 = experiment: as above; format: cell-based; conditions: A401, LEV R, CIP R, AMK R, TET R
[2] = tested on: resistant strains of A. baumannii and one strain of Acinetobacter sp.; experiment: MIC without and with sub-inhibitory polymyxin B, whole panel / MIC ranges (Example 4; also strains not listed separately); format: cell-based; conditions: for MIC: Acinetobacter baumannii
A. baumannii J2 [3] = experiment: MIC without and with sub-inhibitory polymyxin B (Example 4); format: cell-based, Acinetobacter baumannii; conditions: Acinetobacter baumannii, J2, A. baumannii J2, without polymyxin B, read-out: MIC without PB
A. baumannii A401 [4] = experiment: as above; format: cell-based, Acinetobacter baumannii; conditions: Acinetobacter baumannii, A401, A baumannii A 401, without polymyxin B, read-out: MIC without PB
A. baumannii A472 [5] = experiment: as above; format: cell-based, Acinetobacter baumannii; conditions: for MIC: Acinetobacter baumannii, A472, A. baumannii A472, without polymyxin B, read-out: MIC without PB
A. baumannii A473 [6] = experiment: as above; format: cell-based, Acinetobacter baumannii; conditions: Acinetobacter baumannii, A473, A. baumannii A473, without polymyxin B, read-out: MIC without PB
A. baumannii A489 [7] = experiment: as above; format: cell-based, Acinetobacter baumannii; conditions: Acinetobacter baumannii, A489, A. baumannii A489, without polymyxin B, read-out: MIC without PB
A. baumannii J2 [8] = experiment: Preliminary MBC without and with sub-inhibitory polymyxin B (Example 4); format: cell-based, Acinetobacter baumannii; conditions: Acinetobacter baumannii, J2, A. baumannii J2, without polymyxin B, preliminary MBC, read-out: MBC without PB
[9] = tested on: Acinetobacter sp. (H064200250); experiment: as above; format: cell-based; conditions: Acinetobacter, without polymyxin B, preliminary MBC, read-out: MBC without PB
Method in brief: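 After plating, cultures are held at 37° C for 18-20 hours; the endpoint is then scored by comparing colony growth against the positive control, with MBC defined as the lowest concentration showing roughly 90% reduction.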

A. baumannii A390 = experiment: as above; format: cell-based, Acinetobacter baumannii; conditions: Acinetobacter baumannii, A390, A. baumannii A390; without polymyxin B; preliminary MBC; 1st experiment; read-out: MBC without PB
A. baumannii A401 [10] = experiment: as above; format: cell-based, Acinetobacter baumannii; conditions: Acinetobacter baumannii, A401, A baumannii A 401, without polymyxin B, preliminary MBC, read-out: MBC without PB
A. baumannii A472 [11] = experiment: as above; format: cell-based, Acinetobacter baumannii; conditions: Acinetobacter baumannii, A472, A. baumannii A472, without polymyxin B, read-out: MBC without PB
A. baumannii A473 [12] = experiment: as above; format: cell-based, Acinetobacter baumannii; conditions: Acinetobacter baumannii, A473, A. baumannii A473, without polymyxin B, read-out: MBC without PB
A. baumannii A489 [13] = experiment: as above; format: cell-based, Acinetobacter baumannii; conditions: Acinetobacter baumannii, A489, A. baumannii A489, without polymyxin B, 1st experiment, read-out: MBC without PB
A. baumannii A329 [14] = experiment: MIC determination for Acinetobacter strains (Example 3); format: cell-based; conditions: LEV R, CIP R, MRP R, IMP R, AMK R, TET R
A. baumannii A329 [15] = experiment: MIC without and with sub-inhibitory polymyxin B (Example 4); format: cell-based, Acinetobacter baumannii; conditions: Acinetobacter baumannii, A329, A. baumannii A329; without polymyxin B; 1st experiment; read-out: MIC without PB
A. baumannii A329 [16] = experiment: Preliminary MBC without and with sub-inhibitory polymyxin B (Example 4); format: cell-based, Acinetobacter baumannii; conditions: Acinetobacter baumannii, A329, A. baumannii A329, without polymyxin B, read-out: MBC without PB
[17] = A. baumannii A14, without polymyxin B, 1st experiment, read-out: MIC without PB
[18] = read-out: MIC range without PB 01-10-2008 n = 8, without polymyxin B, 1st experiment, 8 strains
[19] = without polymyxin B, 2nd experiment, 11 strains, read-out: MIC range without PB 14-10-2008 n = 11
[20] = Acinetobacter spp. H064200250 (OXA51), 2nd experiment
[21] = Acinetobacter spp. H064200250, 1st experiment

| Compound | MIC (E. coli CTX-M-15) | MIC (E. coli 2906) | MIC (Klebsiella ssp KPC-3) | MIC (Pseudomonas ssp PER-1) | MIC (P. aeruginosa 1388-3-02) | MIC (P. aeruginosa 143-3-03) | MIC [1] | MIC [2, 17] | MIC [2, 18] | MIC [2, 19] | MIC (A. baumannii J2 [3]; 2nd experiment, visual reading) | MIC (A. baumannii A489 [7]; 2nd experiment, visual reading) | MBC (A. baumannii J2 [8]; 2nd experiment) | MBC [9, 20] | MBC [9, 21] | MBC (A. baumannii A489 [13]) | also measured |
| --- | --- | --- | --- | --- | --- | --- | --- | --- | --- | --- | --- | --- | --- | --- | --- | --- | --- |
| Cc1c(-c2ccc(N)cc2)c(F)cn2c(=O)c(C(=O)O)cc(C3CC3)c12 [Compound 7, 8-(4-amino-phenyl)-1-cyclopropyl-7-fluoro-9-methyl-4-oxo-quinolizine-3-carboxylic acid] | 32 µg/mL (≈ 90.8 µM) | 32 µg/mL (≈ 90.8 µM) | 16 µg/mL (≈ 45.4 µM) | 16 µg/mL (≈ 45.4 µM) | 16 µg/mL (≈ 45.4 µM) | 4 µg/mL (≈ 11.4 µM) | 8 µg/mL (≈ 22.7 µM) | 32 µg/mL (≈ 90.8 µM) | 2 to 32 µg/mL (≈ 5.68 to 90.8 µM) | 2 to 16 µg/mL (≈ 5.68 to 45.4 µM) | 4 µg/mL (≈ 11.4 µM) | 8 µg/mL (≈ 22.7 µM) | 4 µg/mL (≈ 11.4 µM) | 8 µg/mL (≈ 22.7 µM) | 4 µg/mL (≈ 11.4 µM) | 4 µg/mL (≈ 11.4 µM) | MIC (A. baumannii A 401): 4 µg/mL (≈ 11.4 µM); MIC (A. baumannii A401 [4]; 1st experiment): 4 µg/mL (≈ 11.4 µM); MIC (A. baumannii A401 [4]; 2nd experiment, visual reading): 8 µg/mL (≈ 22.7 µM); MIC ratio without/with polymyxin B (A. baumannii A472 [5]; A. baumannii A472, ratio MIC without PB to MIC + PB, PB […], 2nd experiment): ≥ 256 µg/mL; MIC (A. baumannii A472 [5]; 1st experiment): 4 µg/mL (≈ 11.4 µM); MIC (A. baumannii A472 [5]; 2nd experiment, visual reading): 8 µg/mL (≈ 22.7 µM); MIC (A. baumannii A473 [6]; 1st experiment): 4 µg/mL (≈ 11.4 µM); MIC (A. baumannii A473 [6]; 2nd experiment, visual reading): 4 µg/mL (≈ 11.4 µM); MIC (A. baumannii A489 [7]; 1st experiment): 8 µg/mL (≈ 22.7 µM); MBC (A. baumannii A390): 4 µg/mL (≈ 11.4 µM); MBC (A. baumannii A401 [10]; 2nd experiment): 8 µg/mL (≈ 22.7 µM); MBC (A. baumannii A401 [10]; 1st experiment): 4 µg/mL (≈ 11.4 µM); MBC (A. baumannii A472 [11]; 1st experiment): 4 µg/mL (≈ 11.4 µM); MBC (A. baumannii A472 [11]; 2nd experiment): 8 µg/mL (≈ 22.7 µM); MBC (A. baumannii A473 [12]; 1st experiment): 4 µg/mL (≈ 11.4 µM); MBC (A. baumannii A473 [12]; 2nd experiment): 4 µg/mL (≈ 11.4 µM) |
| C[C@H]1COc2c(N3CCN(C)CC3)c(F)cc3c(=O)c(C(=O)O)cn1c23 [Levofloxacin, reference compound] | 16 µg/mL (≈ 44.3 µM) | 32 µg/mL (≈ 88.6 µM) | > 128 µg/mL | 32 µg/mL (≈ 88.6 µM) | 32 µg/mL (≈ 88.6 µM) | 8 µg/mL (≈ 22.1 µM) | 16 µg/mL (≈ 44.3 µM) | 32 µg/mL (≈ 88.6 µM) | 8 to 32 µg/mL (≈ 22.1 to 88.6 µM) | 4 to 32 µg/mL (≈ 11.1 to 88.6 µM) | 32 µg/mL (≈ 88.6 µM) | 32 µg/mL (≈ 88.6 µM) | 32 µg/mL (≈ 88.6 µM) | 16 µg/mL (≈ 44.3 µM) | 16 µg/mL (≈ 44.3 µM) | 32 µg/mL (≈ 88.6 µM) | MIC (A. baumannii A329 [14]): 32 µg/mL (≈ 88.6 µM); fold greater activity (fold lower MIC) in presence of polymyxin B compared to without polymyxin B [2]: not significantly affected; MIC ([2]; A. baumannii A14, without polymyxin B, 2nd experiment, visual reading, read-out: MIC without PB): 32 µg/mL (≈ 88.6 µM); MIC ([2]; NCTC13301, A. baumannii NCTC 13301, without polymyxin B, 1st experiment, read-out: MIC without PB): 32 µg/mL (≈ 88.6 µM); MIC ([2]; NCTC13301, A. baumannii NCTC 13301, without polymyxin B, 2nd experiment, visual reading, read-out: MIC without PB): 32 µg/mL (≈ 88.6 µM); MIC (A. baumannii J2 [3]; 1st experiment): 32 µg/mL (≈ 88.6 µM); MIC (A. baumannii A329 [15]): 32 µg/mL (≈ 88.6 µM); MBC (A. baumannii J2 [8]; 1st experiment): 32 µg/mL (≈ 88.6 µM); MBC (A. baumannii A329 [16]; 1st experiment): 32 µg/mL (≈ 88.6 µM); MBC (A. baumannii A329 [16]; 2nd experiment): 32 µg/mL (≈ 88.6 µM) |

Source: US10155021B2, “Antimicrobial 4-oxoquinolizines” (Emergent Product Development Gaithersburg Inc., priority 2011, dated 2018)
